# Key:
# GDNF = GDNF content of sciatic nerve of KKAy mice fed compound, measured by ELISA; format: in vivo, mouse; details: 17 week-old female KKAy mice, powder feed containing 0.01% of compound for 7 weeks
# Experimental: 17 week-old female KKAy mice (n=10-12) were maintained for 7 weeks on a powder feed (CRF-1, manufactured by Oriental Yeast Co., Ltd.) containing 0.01% of compound (5). Then, sciatic nerve of the mouse was taken and stored at −80° C., until use for the measurement (ca. 10 months).
# The stored sciatic nerve was ultrasonicated in a 20-fold volume of a homogenized buffer (0.1 M tris hydrochloride buffer containing 1M sodium chloride, 2% BSA, 2 mM EDTA, 80 trypsin unit/L of aprotinin, 0.02% sodium azide, pH 7.6) and insoluble materials were separated by centrifugation (15,000 rpm, 30 min). The GDNF content of the supernatant was measured by the following ELISA method.
# Thus, an anti-hGDNF goat antibody (100 μg/ml) (Genzyme-Techne) was distributed in 10-μl portions in the wells of 96-well round bottom plates and antibody adsorption was allowed to proceed by 2 hours incubation at room temperature. After removing the antibody, each well was washed three times with a washing solution. […] After washing, 30 μl of 4-methylumbelliferyl-β-D-galactoside (produced by Sigma) (10 μg/ml) was added to the substrate, the reaction was allowed to proceed at room temperature for 4 hours and then terminated by addition of 130 μl of 0.1 M glycine-sodium hydroxide buffer (pH 10.3), and the fluorescent intensity of the 4-methylumbelliferone produced was determined (Ex: 360 nm; Em: 450 nm). […]
# GDF-15 = GDF-15 expression in dorsal root ganglion of STZ diabetic neuropathy rats, real time quantitative RT-PCR; format: in vivo, rat; details: STZ (70 mg/kg) male SD rats, 10 mg/kg body weight/day orally for 4 months
# Experimental: Streptozotocin (STZ) was administered to 6-week-old male SD rats (n=5-8) at 70 mg/kg to prepare diabetic neuropathy models. Starting from 4 months of the STZ administration, compound (5) was orally administered to the rats for 4 months at the dose of 10 mg/kg body weight/day. Then, dorsal root ganglion of the rats was removed, treated with ISOGEN solution (NIPPON GENE CO., LTD.) and the total RNA was extracted.
# Using the obtained total RNA, a primer depicted in 5′-ACTGCATGCCAACCAGAGC-3′ (SEQ ID:1) and a primer depicted in 5′-[…]-3′ (SEQ ID:2), which were prepared based on the reported mRNA sequence of GDF-15, and a fluorescent probe having a GDF-15 specific sequence, […] (SEQ ID:3), and acidic ribosomal phosphoprotein PO as an endogenous control, a real time quantitative RT-PCR (Applied Biosystems) was performed.
# left sciatic nerve = assay: Maximum distance of nerve extension (evoked potential) after sciatic nerve transection in STZ diabetic neuropathy rats; format: in vivo, rat; details: left sciatic nerve transected, 10 mg/kg body weight/day orally for 5 weeks
# Experimental: Streptozotocin (STZ, 70 mg/kg) was intravenously injected to 6-week-old male SD rats (n=9-10) to prepare diabetic neuropathy models. After 2 weeks of the STZ administration, the left sciatic nerve of the rats was transected under anesthesia, and compound (5) was orally administered at the dose of 10 mg/kg body weight/day for 5 weeks. After the completion of the administration, the rats were anesthetized, and the distance (maximum distance of extension) from the nerve transection site to the detectable site was measured for evoked potential using a device detecting evoked potential [Neuropack 2, manufactured by NIHON KOHDEN CORPORATION]. As a result, the maximum extension of the compound (5) administration group was extended by 2.4 times as compared to that of the compound (5) non-administration group (control group).
smiles,measurement,setting,value
"Cc1ccccc1OCCCc1oc(-n2ccnc2C)nc1-c1ccc(Cl)cc1 [compound (5), 4-(4-chlorophenyl)-2-(2-methyl-1-imidazolyl)-5-[3-(2-methylphenoxy)propyl]oxazole]",increase of GDNF content in the sciatic nerve as compared to the control group,GDNF,87.9%
same,increase of GDF-15 expression level as compared to non-administration group (control group),GDF-15,135%
same,maximum extension (distance from nerve transection site to site with detectable evoked potential) relative to control group,left sciatic nerve; STZ (70 mg/kg i.v.) male SD rats,2.4 times
same,effect of neuroneogenesis and of restoring nerve function,left sciatic nerve; STZ male SD rats,an effect of neuroneogenesis and an effect of restoring nerve function were observed
